Laboratory results taken from ChEMBL document CHEMBL4476875 (2018).

Legend:
[1] = target: Histone-lysine N-methyltransferase SUV39H2 (Homo sapiens, UniProt Q9H5I1); assay: Inhibition of SUV39H2 (unknown origin) using H3 histone peptide substrate and [3H]-SAM incubated for 3 hrs by microbeta counting based assay
[2] = test system: A549; assay: Cytotoxicity against human A549 cells assessed as reduction in cell viability incubated for 72 hrs by CCK8 assay; type: functional, cell-based; details: A549, 72 h
[3] = test system: HCT-116; assay: Cytotoxicity against human HCT116 cells assessed as reduction in cell viability incubated for 72 hrs by CCK8 assay; type: functional, cell-based; details: HCT-116, 72 h
[4] = test system: HFL1; assay: Cytotoxicity against human HFL1 cells assessed as reduction in cell viability incubated for 72 hrs by CCK8 assay; type: functional, cell-based; details: HFL1, 72 h
[5] = test system: CCD-18Co; assay: Cytotoxicity against human CCD-18Co cells assessed as reduction in cell viability incubated for 72 hrs by CCK8 assay; type: functional, cell-based
[6] = test system: PC-14; assay: Cytotoxicity against human PC14 cells assessed as reduction in cell viability incubated for 72 hrs by CCK8 assay; type: functional, cell-based; details: PC-14, 72 h

Sequence of Histone-lysine N-methyltransferase SUV39H2 (Q9H5I1 whole entry): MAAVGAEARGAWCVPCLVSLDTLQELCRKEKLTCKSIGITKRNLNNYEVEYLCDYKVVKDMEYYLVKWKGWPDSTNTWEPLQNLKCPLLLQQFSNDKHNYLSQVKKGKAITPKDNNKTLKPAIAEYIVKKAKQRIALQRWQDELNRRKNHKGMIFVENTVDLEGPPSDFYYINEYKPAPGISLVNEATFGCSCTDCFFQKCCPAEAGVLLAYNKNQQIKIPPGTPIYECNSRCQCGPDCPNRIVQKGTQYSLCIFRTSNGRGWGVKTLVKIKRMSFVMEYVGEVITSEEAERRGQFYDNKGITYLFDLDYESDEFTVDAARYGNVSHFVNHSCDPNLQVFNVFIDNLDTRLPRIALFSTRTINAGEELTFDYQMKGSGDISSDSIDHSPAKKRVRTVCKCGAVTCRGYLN

SMILES | IC50 [1] [nM] | IC50 [2] [nM] | also measured
CNCC(=O)Nc1ccc(-c2ccn3cc(-c4cc(Cl)c(OC)cc4OC)nc3c2)cc1 | 80.1 | – | –
COc1cc(OC)c(-c2cn3ccc(N4CCN(c5cnc(N6CCC(NS(=O)(=O)C7CC7)CC6)nc5)CC4)cc3n2)cc1Cl | – | 670 | –
COc1cc(OC)c(-c2cn3ccc(N[C@H]4CC[C@@H](N(C)Cc5ccc(F)cc5)CC4)cc3n2)cc1Cl | – | 1300 | –
COc1cc(OC)c(-c2cn3ccc(N4CCN(Cc5ccc(C#N)nc5)CC4)cc3n2)cc1Cl | – | 960 | –
COc1cc(OC)c(-c2cn3ccc(N[C@H]4C[C@H]5CC[C@@H](C4)N5CC4CCCCC4)cc3n2)cc1Cl | – | 550 | –
COc1cc(OC)c(-c2cn3ccc(-c4ccc(C(=O)NC5CCNC5)cc4)cc3n2)cc1Cl (centres undefined) | – | 5400 | IC50 [3]: 3.7 µM; IC50 [4]: 5.4 µM; IC50 [5]: 5.2 µM; IC50 [6]: 4.8 µM
COc1cc(OC)c(-c2cn3ccc(NC(=O)[C@@H](N)CCCCN)cc3n2)cc1Cl | – | 10000 | IC50 [3]: 10 µM; IC50 [4]: 10 µM; IC50 [5]: 10 µM
COc1cc(OC)c(-c2cn3ccc(N4CCN(c5cnc(N6CCNCC6)nc5)CC4)cc3n2)cc1Cl | 14.8 | – | –
COCC(=O)N1CCN(c2ccn3cc(-c4cc(Cl)c(OC)cc4OC)nc3c2)C(C)C1 (centres undefined) | 1.88 | – | –
COc1cc(OC)c(-c2cn3ccc(-c4ccc(C(=O)[C@H](C)N)cc4)cc3n2)cc1Cl | 99.5 | – | –
COC(=O)c1ccc(CN[C@H]2CC[C@@H](Nc3ccn4cc(-c5cc(Cl)c(OC)cc5OC)nc4c3)CC2)cc1 | 24.1 | – | –
COc1cc(OCCCN(C)C)c(-c2cn3ccc(N4CCN(C(C)=O)CC4)cc3n2)cc1Cl | – | 6900 | IC50 [3]: 7.9 µM; IC50 [4]: 4.3 µM; IC50 [5]: 8.7 µM; IC50 [6]: 8 µM
COc1cc(OC)c(-c2cn3ccc(N[C@H]4CC[C@@H](N(C)Cc5ccccc5F)CC4)cc3n2)cc1Cl | – | 740 | –
